This is an account of results in patent US10906880B2, “Kind of isothiazole oxime ether-containing strobilurin derivatives and its preparation methods and application” (priority 2016, dated 2021).

“And” between values parts separate entries of the source, which are not always exact repeats. Equal entries are not always repeated. Where two headings read alike, the source gives them in different places. Bounds are passed on as bounds.

One series deals with Alternaria solani. Briefly: Fungicide activity, mycelial growth inhibition on PDA plate. The format is cell-based. The following applies: Alternaria solani, read-out: Fungicidal activity inhibition, AS.
In a further series the test system is Cercospora arachidicola. Described as above. Format: cell-based. The following applies: Mycosphaerella arachidis, read-out: Fungicidal activity inhibition, CA.
Another series has as its system Gibberella zeae. Briefly: microbe, parasite or virus in culture. The format is cell-based. The following applies: for Fungicidal activity inhibition, GZ: 50 μg/mL, G. zeae; for inhibition at 50 µg/mL: Fusarium graminearum, read-out: Fungicidal activity inhibition, GZ, 50 μg/mL, G. zeae.
The subject of a further series is Physalospora piricola. Briefly: Fungicide activity, mycelial growth inhibition on PDA plate. Format: cell-based. The following applies: 50 μg/mL, P. piricola; read-out: Fungicidal activity inhibition, PP.
The test system of a further series is Botrytis cinerea. Described as above. Format: cell-based. The following applies: Botrytis cinerea, read-out: Fungicidal activity inhibition, BC.
A further series relates to Sclerotinia sclerotiorum. Described as above. The following applies: Sclerotinia sclerotiorum, read-out: Fungicidal activity inhibition, SS. The format is cell-based.
The next series relates to Rhizoctonia cerealis. Described as above. Format: cell-based. The following applies: Ceratobasidium cereale, read-out: Fungicidal activity inhibition, RC.
In a further series the test system is Pellicularia sasakii. The series is described as above. The format is cell-based. The following applies: 50 μg/mL, P. sasakii; read-out: Fungicidal activity inhibition, PS.
For series [1], the system named is Phytophthora infestans (Mont) de Bary. Briefly: microbe, parasite or virus in culture. The following applies: for inhibition at 50 µg/mL: Phytophthora infestans, read-out: Fungicidal activity inhibition, PI, 50 μg/mL, P. infestans (Mont.) de Bary. Format: cell-based.
Series [2] concerns TMV. Briefly: Anti-TMV activity on tobacco, curative mode. The following applies: 100 μg/mL, tobacco; for inhibition at 100 µg/mL: Tobacco mosaic virus, read-out: Anti-TMV activity inhibition, Curative effect. Format: in vivo, tobacco mosaic virus.
Series [3] relates to TMV. Briefly: Anti-TMV activity on tobacco, inactivation mode. Format: in vivo, tobacco mosaic virus. The following applies: 100 μg/mL; for inhibition at 100 µg/mL: Tobacco mosaic virus, read-out: Anti-TMV activity inhibition, Inactivation effect.
In series [4] the test system is TMV. Briefly: Anti-TMV activity on tobacco, protection mode. The following applies: 100 μg/mL; for inhibition at 100 µg/mL: Tobacco mosaic virus, read-out: Anti-TMV activity inhibition, Protection effect. Format: in vivo, tobacco mosaic virus.
Series [5] concerns TMV. Briefly: Anti-TMV activity on tobacco, induction mode (systemic acquired resistance). The following applies: 100 μg/mL; for inhibition at 100 µg/mL: Tobacco mosaic virus, read-out: Anti-TMV activity inhibition, Induction effect. The format is in vivo, tobacco mosaic virus.

The melting point is the temperature of the solid-liquid transition. In the case of `CNC(=O)/C(=N/OC)c1ccccc1CO/N=C(\N)c1snc(Cl)c1Cl` [CL04-25C], the melting point was in the range of 122 to 124 °C. Further, in the series on Alternaria solani (50 μg/mL, A. solani), the inhibition at 50 µg/mL turned out to be 34.4%. The inhibition at 50 µg/mL in the series on Alternaria solani was more than 30%. In the series on Cercospora arachidicola (50 μg/mL, C. arachidicola), the inhibition at 50 µg/mL is 44%. Moreover, in the series on Cercospora arachidicola, the inhibition at 50 µg/mL was more than 30%. In the series with Gibberella zeae, the “Fungicidal activity inhibition, GZ” value came to 100%. Besides, in the series on Physalospora piricola, the inhibition at 50 µg/mL came to 40.4%. The inhibition at 50 µg/mL in the series on Botrytis cinerea (50 μg/mL, B. cinerea) stood at 57.9%. Besides, the inhibition at 50 µg/mL with Botrytis cinerea was more than 45%. Also, in the series with Sclerotinia sclerotiorum (50 μg/mL, S. sclerotiorum), the inhibition at 50 µg/mL stood at 66.7%. In addition, the inhibition at 50 µg/mL in the series with Sclerotinia sclerotiorum is more than 40%. Besides, the inhibition at 50 µg/mL in the series with Rhizoctonia cerealis (50 μg/mL, R. cerealis) amounted to 100%. In addition, the inhibition at 50 µg/mL in the series on Pellicularia sasakii worked out at 83.8%. In addition, in [1] (50 μg/mL, P. infestans (Mont.) de Bary), the “Fungicidal activity inhibition, PI” value is reported as 100%. Besides, the inhibition at 100 µg/mL in the series on TMV [2] worked out at 14.7 ± 4.84%. The inhibition at 100 µg/mL in the series with TMV [3] stood at 0%. Also, in the series on TMV [4], the inhibition at 100 µg/mL was more than 40%.

For `CO/N=C(/C(=O)NC(C)(C)CSC)c1ccccc1CO/N=C(C)/C=C/c1snc(Cl)c1Cl` [CL04-32E], the inhibition at 50 µg/mL was 5.45% with Alternaria solani (50 μg/mL, A. solani); 12.5% in the series on Cercospora arachidicola (50 μg/mL, C. arachidicola); 24.2% in the series with Gibberella zeae; 39.5% with Physalospora piricola; 32.1% in the series with Botrytis cinerea (50 μg/mL, B. cinerea); 41.2% in the series with Sclerotinia sclerotiorum (50 μg/mL, S. sclerotiorum). Besides, the inhibition at 50 µg/mL in the series on Rhizoctonia cerealis (50 μg/mL, R. cerealis) turned out to be 58%; in the series on Pellicularia sasakii it was 15.2%; in series [1] it was 11.4%. Further, the inhibition at 100 µg/mL in the series on TMV [2] was 1.52 ± 0.62%; with TMV [3], 13.7 ± 0.55%; in the series with TMV [4], more than 40%; in the series with TMV [5] it was more than 70%.

`CO/N=C(/C(=O)NCC(F)F)c1ccccc1CO/N=C(C)/C=C/c1snc(Cl)c1Cl` [CL04-32A]: the melting point is 98 to 100 °C. Also, the inhibition at 50 µg/mL in the series on Alternaria solani (50 μg/mL, A. solani) came to 34.4%. For the same compound, in the series on Alternaria solani, the inhibition at 50 µg/mL is more than 30%. Moreover, the inhibition at 50 µg/mL with Cercospora arachidicola (50 μg/mL, C. arachidicola) is 36%. Besides, the inhibition at 50 µg/mL with Cercospora arachidicola is more than 30%. Further, the inhibition at 50 µg/mL in the series on Gibberella zeae is more than 30%. In addition, the inhibition at 50 µg/mL in the series with Physalospora piricola is 29.8%. Also, the inhibition at 50 µg/mL with Botrytis cinerea (50 μg/mL, B. cinerea) turned out to be 52.6%. Besides, the inhibition at 50 µg/mL with Botrytis cinerea was more than 45%. In addition, the inhibition at 50 µg/mL in the series on Sclerotinia sclerotiorum (50 μg/mL, S. sclerotiorum) turned out to be 53.3%. Also, the inhibition at 50 µg/mL in the series on Sclerotinia sclerotiorum was more than 40%. In the series with Rhizoctonia cerealis (50 μg/mL, R. cerealis), the inhibition at 50 µg/mL was 85.4%. Further, the inhibition at 50 µg/mL in the series on Rhizoctonia cerealis is more than 50%. Also, in the series with Pellicularia sasakii, the inhibition at 50 µg/mL came to 35.1%. Moreover, in the series on TMV [2], the inhibition at 100 µg/mL worked out at 1.52 ± 0.62%. Moreover, the inhibition at 100 µg/mL with TMV [3] is more than 30%. Besides, the inhibition at 100 µg/mL in the series with TMV [4] was more than 40%. In the series on TMV [5], the inhibition at 100 µg/mL is more than 30%.

For `CO/N=C(/C(=O)N[C@@H](C)CSC)c1ccccc1CO/N=C(\N)c1snc(Cl)c1Cl` [CL04-25E], the inhibition at 50 µg/mL in the series on Alternaria solani (50 μg/mL, A. solani) is 9.09%; with Cercospora arachidicola (50 μg/mL, C. arachidicola) it was 16.7%; in the series on Gibberella zeae, more than 30%; in the series on Physalospora piricola, 10.9%; in the series with Botrytis cinerea (50 μg/mL, B. cinerea) it was 35.7%; in the series on Sclerotinia sclerotiorum (50 μg/mL, S. sclerotiorum), 52.9%. In addition, the inhibition at 50 µg/mL is more than 40% with Sclerotinia sclerotiorum; 54% in the series with Rhizoctonia cerealis (50 μg/mL, R. cerealis); more than 50% with Rhizoctonia cerealis; 21.2% in the series on Pellicularia sasakii; 11.4% in [1]. Also, the inhibition at 100 µg/mL worked out at 19.1 ± 6.56% in the series on TMV [2], 0% in the series with TMV [3], 26 ± 4.71% in the series with TMV [4] and 16 ± 7.71% with TMV [5].

Take `CNC(=O)/C(=N/OC)c1cc(C)c(C)cc1CO/N=C(\C)c1cc(Cl)ns1` [CL04-00, reference compound]: the “Fungicidal activity inhibition, GZ” value with Gibberella zeae was 29.63% and 50.00%. In the series with TMV [2], the “Anti-TMV activity inhibition, Curative effect” value is 26.39 ± 1.22% and the inhibition at 100 µg/mL came to 27.3 ± 1.24%. In the series on TMV [3], the “Anti-TMV activity inhibition, Inactivation effect” value was 19.68 ± 1.10% and the inhibition at 100 µg/mL is 20.7 ± 2.1%. Further, in the series with TMV [4], the “Anti-TMV activity inhibition, Protection effect” value is on record as 25.30 ± 1.47% and the inhibition at 100 µg/mL was 26.3 ± 2.47%. In the series with TMV [5], the “Anti-TMV activity inhibition, Induction effect” value was 19.34 ± 1.14% and the inhibition at 100 µg/mL stood at 20.3 ± 2.16%.
